In general, IC50 refers to the concentration at which inhibition is half-maximal. High values mean weaker potency in that assay, low ones greater potency in that assay.

Results on 20 molecules are retold here after patent US20090312310A1 (priority 2006, published 2009).

Structures are written as SMILES.

The target of this assay is T1, Mdm2/p53 binding (Homo sapiens, UniProt Q00987, L33E).
T1 construct: having Mdm2 amino acids at positions 25 to 108
T1 sequence (Q00987 25-108 L33E, species assumed): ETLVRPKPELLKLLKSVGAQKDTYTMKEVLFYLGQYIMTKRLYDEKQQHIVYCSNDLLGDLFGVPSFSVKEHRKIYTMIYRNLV
As to the kind of experiment: Mdm2/p53 binding assay (HTRF, His-p53 / GST-Mdm2). Conditions: His-p53 (aa 1-132) and GST-Mdm2 (aa 25-108, L33E), 6.25 nM each; 25° C., 1 hour. Here is the method: Next, a test compound was diluted with protein buffer solution containing 10% DMSO, and this test compound dilution was added in an amount of 4 μL/well to the plate.
These dilutions were added in an amount of 8 μL/well (total reaction solution volume: 20 μl/well). Then, the plate was left at 25° C. for 1 hour.
C (correction factor)=(A−BI)/D
The R value calculated from the well supplemented with His-p53, GST-Mdm2, the test compound, and each antibody was defined as R (sample). The R value calculated from the well supplemented with His-p53, GST-Mdm2, and each antibody but without the test compound was defined as R (control). The R value calculated from the well supplemented with GST-Mdm2, the test compound, and each antibody but without His-p53 was defined as R (background). T/C was calculated from the formula shown below. An IC50 value for Mdm2/p53 binding was calculated by sigmoid fitting using Prism (GraphPad Software).
T/C=(R (sample)−R (background))/(R (control)−R (background))
(In general: In TR-FRET formats the signal depends on donor and acceptor labels being close together.)
The molecule `CC[C@@H]1CC[C@@H](C(=O)N2C[C@@H](C)N[C@@H](C)C2)N1C(=O)C1=C(C(C)C)N2C(=N[C@@](C)(c3ccc(Cl)cc3)[C@H]2c2ccc(Cl)cc2)S1` [Example 105, (5R,6S)-5,6-Bis(4-chlorophenyl)-2-[((2S,5R)-2-{[(3R,5S)-3,5-dimethylpiperazin-1-yl]carbonyl}-5-ethylpyrrolidin-1-yl)carbonyl]-3-isopropyl-6-methyl-5,6-dihydroimidazo[2,1-b][1,3]thiazole] returned an IC50 of 18 nM.
Molecule `CC(C)C1=C(C(=O)N2CCC[C@H]2C(=O)N2CCC[C@H]2C(=O)O)SC2=N[C@@](C)(c3ccc(Cl)cc3)[C@@H](c3ccc(Cl)cc3)N21` [Example 68, 1-{[(5R,6S)-5,6-Bis(4-chlorophenyl)-3-isopropyl-6-methyl-5,6-dihydroimidazo[2,1-b][1,3]thiazol-2-yl]carbonyl}-L-prolyl-L-proline] had a concentration for half-maximal inhibition (IC50) of 46 nM.
For `CC(=O)N(C)C[C@H](C)N(C)C(=O)C1=C(C(C)C)N2C(=N[C@@](C)(c3ccc(Cl)cc3)[C@H]2c2ccc(Cl)cc2)S1` [Example 74, (5R,6S)—N-{(1S)-2-[Acetyl(methyl)amino]-1-methylethyl}-5,6-bis(4-chlorophenyl)-3-isopropyl-N,6-dimethyl-5,6-dihydroimidazo[2,1-b][1,3]thiazole-2-carboxamide] the value was 23 nM; for `CC(C)C1=C(C(=O)N2[C@H](C)CC[C@H]2C(=O)N2CCN(C)[C@H](C)C2)SC2=N[C@@](C)(c3ccc(Cl)cc3)[C@@H](c3ccc(C(F)(F)F)cc3)N21` [Example 180, (5R,6S)-6-(4-Chlorophenyl)-2-{[(2S,5R)-2-{[(3R)-3,4-dimethylpiperazin-1-yl]carbonyl}-5-methylpyrrolidin-1-yl]carbonyl}-3-isopropyl-6-methyl-5-[4-(trifluoromethyl)phenyl]-5,6-dihydroimidazo[2,1-b][1,3]thiazole], 13 nM; for `CCCCC[C@]1(C)N=C2SC(C(=O)N3CCC[C@H]3C(=O)N(C)C)=C(C(C)C)N2[C@@H]1c1ccc(Cl)cc1` (relative stereo) [Example 99 (Cis-Isomer), 1-{[(5R*,6S*)-5-(4-chlorophenyl)-3-isopropyl-6-methyl-6-pentyl-5,6-dihydroimidazo[2,1-b][1,3]thiazol-2-yl]carbonyl}-N,N-dimethyl-L-prolinamide], 194 nM.
The molecule `CC(C)C1=C(C(=O)N2[C@H](C)CC[C@H]2C(=O)N2CCN(C)[C@H](C)C2)SC2=N[C@@](C)(c3ccc(Cl)cc3)[C@@H](c3ccc(Cl)c(F)c3)N21` [Example 167, (5R,6S)-5-(4-Chloro-3-fluorophenyl)-6-(4-chlorophenyl)-2-{[(2S,5R)-2-{[(3R)-3,4-dimethylpiperazin-1-yl]carbonyl}-5-methylpyrrolidin-1-yl]carbonyl}-3-isopropyl-6-methyl-5,6-dihydroimidazo[2,1-b][1,3]thiazole] registered a half-maximal inhibitory concentration (IC50) of 10 nM.
The result for `CC(C)C1=C(C(=O)N2[C@H](C)CC[C@H]2C(=O)N2CCN(CCO)[C@H](C)C2)SC2=N[C@@](C)(c3ccc(Cl)cc3)[C@@H](c3ccc(Cl)cc3)N21` [Example 204, 2-{(2R)-4-[(5R)-1-{[(5R,6S)-5,6-Bis(4-chlorophehyl)-3-isopropyl-6-methyl-5,6-dihydroimidazo[2,1-b][1,3]thiazol-2-yl]carbonyl}-5-methyl-L-prolyl]-2-methylpiperazin-1-yl}ethanol] reads 19 nM; that for `CC(C)C1=C(C(=O)N2[C@H](C)CC[C@H]2C(=O)N2C[C@@H](N)[C@H](F)C2)SC2=N[C@@](C)(c3ccc(Cl)cc3)[C@@H](c3ccc(Cl)cc3)N21` [Example 240, (3R,4R)-1-[(5R)-1-{[(5R,6S)-5,6-Bis(4-chlorophenyl)-3-isopropyl-6-methyl-5,6-dihydroimidazo[2,1-b][1,3]thiazol-2-yl]carbonyl}-5-methyl-L-prolyl]-4-fluoropyrrolidin-3-amine], 13 nM.
Take `CC(C)C1=C(C(=O)N2[C@H](C)CC[C@H]2C(=O)N2CCN(CCO)[C@H](C)C2)SC2=N[C@@](C)(c3ccc(Cl)nc3)[C@@H](c3ccc(Cl)c(F)c3)N21` [Example 260, 2-{(2R)-4-[(5R)-1-{[(5R,6S)-5-(4-chloro-3-fluorophenyl)-6-(6-chloropyridin-3-yl)-3-isopropyl-6-methyl-5,6-dihydroimidazo[2,1-b][1,3]thiazol-2-yl]carbonyl}-5-methyl-L-prolyl]-2-methylpiperazin-1-yl}ethanol]: the IC50 came out at 15 nM.
`CC(C)C1=C(C(=O)N2CC[C@H]2C(=O)N(C)C)SC2=N[C@@](C)(c3ccc(Cl)cc3)[C@@H](c3ccc(Cl)cc3)N21` [Example 93, (2S)-1-{[(5R,6S)-5,6-Bis(4-chlorophenyl)-3-isopropyl-6-methyl-5,6-dihydroimidazo[2,1-b][1,3]thiazol-2-yl]carbonyl}-N,N-dimethylazetidine-2-carboxamide]: the IC50 was 135 nM.
The result for `CC(C)C1=C(CN2CCNC(=O)C2)SC2=NC(C)(c3ccc(Cl)cc3)C(c3ccc(Cl)cc3)N21` (racemic) [Example 18, 4-{[(5R*,6S*)-5,6-Bis(4-chlorophenyl)-3-isopropyl-6-methyl-5,6-dihydroimidazo[2,1-b][1,3]thiazol-2-yl]methyl}piperazin-2-one] reads 87 nM; that for `CC(C)C1=C(C(=O)N(C)C)SC2=N[C@@](C)(c3ccc(Cl)nc3)[C@@H](c3ccc(Cl)cc3)N21` [Example 220, (5R,6S)-5-(4-Chlorophenyl)-6-(6-chloropyridin-3-yl)-3-isopropyl-N,N,6-trimethyl-5,6-dihydroimidazo[2,1-b][1,3]thiazole-2-carboxamide], 76 nM.
The molecule `CC(C)C1=C(C(=O)N(C)[C@H]2C[C@@H](O)C2)SC2=N[C@@](C)(c3ccc(Cl)cc3)[C@@H](c3ccc(Cl)cc3)N21` [Example 164, (5R,6S)-5,6-Bis(4-chlorophenyl)-N-(cis-3-hydroxycyclobutyl)-3-isopropyl-N,6-dimethyl-5,6-dihydroimidazo[2,1-b][1,3]thiazole-2-carboxamide] returned a concentration for half-maximal inhibition (IC50) of 84 nM.
In the case of `CC(C)C1=C(C(=O)N(C)C)SC2=N[C@@](C)(c3ccc(Cl)cc3)[C@@H](c3ccc(Cl)cc3)N21` [Example 39, (5R,6S)-5,6-Bis(4-chlorophenyl)-3-isopropyl-N,N,6-trimethyl-5,6-dihydroimidazo[2,1-b][1,3]thiazole-2-carboxamide], the IC50 worked out at 51 nM.
For `CC[C@@H]1CC[C@@H](C(=O)N2CCN(C(C)=O)[C@H](C)C2)N1C(=O)C1=C(C(C)C)N2C(=N[C@@](C)(c3ccc(Cl)cc3)[C@H]2c2ccc(Br)cc2)S1` [Example 155, (5R,6S)-2-{[(2S,5R)-2-{[(3R)-4-Acetyl-3-methylpiperazin-1-yl]carbonyl}-5-ethylpyrrolidin-1-yl]carbonyl}-5-(4-bromophenyl)-6-(4-chlorophenyl)-3-isopropyl-6-methyl-5,6-dihydroimidazo[2,1-b][1,3]thiazole] the value was 30 nM; for `CC(C)C1=C(C(=O)N(C(C)C)[C@H]2C[C@H](N(C)C)C2)SC2=N[C@@](C)(c3ccc(Cl)cc3)[C@@H](c3ccc(Cl)cc3)N21` [Example 219, (5R,6S)-5,6-Bis(4-chlorophenyl)-N-[trans-3-(dimethylamino)cyclobutyl]-N,3-diisopropyl-6-methyl-5,6-dihydroimidazo[2,1-b][1,3]thiazole-2-carboxamide], 4 nM; for `CC(C)C1=C(C(=O)N2CCC[C@H]2COC2CCN(C)CC2)SC2=N[C@@](C)(c3ccc(Cl)cc3)[C@@H](c3ccc(Cl)cc3)N21` [Example 211, (5R,6S)-5,6-Bis(4-chlorophenyl)-3-isopropyl-6-methyl-2-{[(2S)-2-{[(1-methylpiperidin-4-yl)oxy]methyl}pyrrolidin-1-yl]carbonyl}-5,6-dihydroimidazo[2,1-b][1,3]thiazole], 12 nM.
The result for `CNc1cc([C@]2(C)N=C3SC(C(=O)N4CCC[C@H]4C(=O)N4CCN(C)CC4)=C(C(C)C)N3[C@@H]2c2ccc(Cl)cc2)ccc1Cl` [Example 102] reads 80 nM; that for `CC(C)C1=C(C(=O)N2CCC[C@H]2c2n[nH]c(=O)o2)SC2=N[C@@](C)(c3ccc(Cl)cc3)[C@@H](c3ccc(Cl)cc3)N21` [Example 89, 5-((2S)-1-{[(5R,6S)-5,6-Bis(4-chlorophenyl)-3-isopropyl-6-methyl-5,6-dihydroimidazo[2,1-b][1,3]thiazol-2-yl]carbonyl}pyrrolidin-2-yl)-1,3,4-oxadiazol-2(3H)-one], 143 nM.
The result for `CC(=O)N1CCN(C(=O)CN(CC(C)C)C(=O)C2=C(C(C)C)N3C(=N[C@@](C)(c4ccc(Cl)cc4)[C@H]3c3ccc(Cl)cc3)S2)CC1` [Example 88, (5R,6S)—N-[2-(4-Acetylpiperazin-1-yl)-2-oxoethyl]-5,6-bis(4-chlorophenyl)-N-isobutyl-3-isopropyl-6-methyl-5,6-dihydroimidazo[2,1-b][1,3]thiazole-2-carboxamide] reads 29 nM.
